According to ChEMBL document CHEMBL3885881, “DrugMatrix”:

Species: Rattus norvegicus
Test: DrugMatrix - Regimen: Daily Repeat
Type: toxicity, organism-based, Sprague-Dawley
Design: regimen Daily Repeat, gender Male, age 6-8 weeks
Details: in vivo, po, route oral GAVAGE, vehicle .5 % CMC; for ABSOLUTE BASOPHIL / ABSOLUTE EOSINOPHIL / ABSOLUTE LYMPHOCYTE / ABSOLUTE MONOCYTE / ABSOLUTE SEGMENTED NEUTROPHIL / BASOPHIL / EOSINOPHIL / ERYTHROCYTE COUNT / HEMATOCRIT / HEMOGLOBIN / LEUKOCYTE COUNT / LYMPHOCYTE / MEAN CORPUSCULAR HEMOGLOBIN / MEAN CORPUSCULAR HEMOGLOBIN CONCENTRATION / MEAN CORPUSCULAR VOLUME / MONOCYTE / NEUTROPHIL / NUCLEATED RED BLOOD CELLS / PLATELET COUNT: tissue Blood; for ALANINE AMINOTRANSFERASE / ALBUMIN / ALKALINE PHOSPHATASE / ASPARTATE AMINOTRANSFERASE / BLOOD UREA NITROGEN / CARBON DIOXIDE / CHLORIDE / CHOLESTEROL / CREATINE PHOSPHOKINASE / CREATININE / GLUCOSE / LACTATE DEHYDROGENASE / LIPASE / PHOSPHORUS / POTASSIUM / SODIUM / TOTAL BILIRUBIN / TOTAL PROTEIN / URIC ACID: tissue Plasma
[1] = 0 mg/kg, 72 h, dose level Control, time 3 day
[2] = 0 mg/kg, 120 h, dose level Control, time 5 day
[3] = 580 mg/kg, 72 h, dose level High, time 3 day

CN1C(=O)COc2c(C(=O)NC3CN4CCC3CC4)cc(Cl)cc21 (centres undefined) [AZASETRON]
ABSOLUTE BASOPHIL [1]: 0 CELLS/uL | ABSOLUTE EOSINOPHIL [1]: 47.67 CELLS/uL | ABSOLUTE LYMPHOCYTE [1]: 15937.67 CELLS/uL | ABSOLUTE MONOCYTE [1]: 138.33 CELLS/uL | ABSOLUTE SEGMENTED NEUTROPHIL [1]: 1443 CELLS/uL | BASOPHIL [1]: 0% | EOSINOPHIL [1]: 0.33% | ERYTHROCYTE COUNT [1]: 5.45 x10E6/uL | HEMATOCRIT [1]: 34.43% | HEMOGLOBIN [1]: 13.38 G/DL | LEUKOCYTE COUNT [1]: 17.57 x10E3/uL | LYMPHOCYTE [1]: 90.33% | MEAN CORPUSCULAR HEMOGLOBIN [1]: 24.6 pg | MEAN CORPUSCULAR HEMOGLOBIN CONCENTRATION [1]: 38.88 G/DL | MEAN CORPUSCULAR VOLUME [1]: 63.27 fL | MONOCYTE [1]: 0.83% | NEUTROPHIL [1]: 8.5% | NUCLEATED RED BLOOD CELLS [1]: 0 /100WBC | PLATELET COUNT [1]: 1298 x10E3/uL | ALANINE AMINOTRANSFERASE [1]: 47.67 u/L | ALBUMIN [1]: 4.18 G/DL | ALKALINE PHOSPHATASE [1]: 398.5 u/L | ASPARTATE AMINOTRANSFERASE [1]: 93.17 u/L | BLOOD UREA NITROGEN [1]: 16 mg/dL | CARBON DIOXIDE [1]: 29.17 mmol/L | CHLORIDE [1]: 98.17 MEQ/L | CHOLESTEROL [1]: 68.83 mg/dL | CREATINE PHOSPHOKINASE [1]: 467.33 u/L | CREATININE [1]: 0.14 mg/dL | GLUCOSE [1]: 151.67 mg/dL | LACTATE DEHYDROGENASE [1]: 597.5 u/L | LIPASE [1]: 9.33 u/L | PHOSPHORUS [1]: 11.97 mg/dL | POTASSIUM [1]: 6.43 MEQ/L | SODIUM [1]: 140.68 MEQ/L | TOTAL BILIRUBIN [1]: 0.18 mg/dL | TOTAL PROTEIN [1]: 5.82 G/DL | URIC ACID [1]: 1.48 mg/dL | ABSOLUTE BASOPHIL [2]: 0 CELLS/uL | ABSOLUTE EOSINOPHIL [2]: 31 CELLS/uL | ABSOLUTE LYMPHOCYTE [2]: 14327.83 CELLS/uL | ABSOLUTE MONOCYTE [2]: 102.83 CELLS/uL | ABSOLUTE SEGMENTED NEUTROPHIL [2]: 1321.67 CELLS/uL | BASOPHIL [2]: 0% | EOSINOPHIL [2]: 0.17% | ERYTHROCYTE COUNT [2]: 5.79 x10E6/uL | HEMATOCRIT [2]: 36.1% | HEMOGLOBIN [2]: 14.15 G/DL | LEUKOCYTE COUNT [2]: 15.78 x10E3/uL | LYMPHOCYTE [2]: 90.5% | MEAN CORPUSCULAR HEMOGLOBIN [2]: 24.48 pg | MEAN CORPUSCULAR HEMOGLOBIN CONCENTRATION [2]: 39.22 G/DL | MEAN CORPUSCULAR VOLUME [2]: 62.4 fL | MONOCYTE [2]: 0.67% | NEUTROPHIL [2]: 8.67% | NUCLEATED RED BLOOD CELLS [2]: 0.17 /100WBC | PLATELET COUNT [2]: 1211.67 x10E3/uL | ALANINE AMINOTRANSFERASE [2]: 49 u/L | ALBUMIN [2]: 4.27 G/DL | ALKALINE PHOSPHATASE [2]: 356.67 u/L | ASPARTATE AMINOTRANSFERASE [2]: 90.17 u/L | BLOOD UREA NITROGEN [2]: 20.5 mg/dL | CARBON DIOXIDE [2]: 29.17 mmol/L | CHLORIDE [2]: 98 MEQ/L | CHOLESTEROL [2]: 69.83 mg/dL | CREATINE PHOSPHOKINASE [2]: 312 u/L | CREATININE [2]: 0.21 mg/dL | GLUCOSE [2]: 149.83 mg/dL | LACTATE DEHYDROGENASE [2]: 322 u/L | LIPASE [2]: 10 u/L | PHOSPHORUS [2]: 12 mg/dL | POTASSIUM [2]: 6.75 MEQ/L | SODIUM [2]: 142.8 MEQ/L | TOTAL BILIRUBIN [2]: 0.17 mg/dL | TOTAL PROTEIN [2]: 6.1 G/DL | URIC ACID [2]: 1.68 mg/dL | ABSOLUTE BASOPHIL [3]: 0 CELLS/uL | ABSOLUTE EOSINOPHIL [3]: 0 CELLS/uL | ABSOLUTE LYMPHOCYTE [3]: 13751.33 CELLS/uL | ABSOLUTE MONOCYTE [3]: 160.33 CELLS/uL | ABSOLUTE SEGMENTED NEUTROPHIL [3]: 1088.33 CELLS/uL | BASOPHIL [3]: 0% | EOSINOPHIL [3]: 0% | ERYTHROCYTE COUNT [3]: 6.01 x10E6/uL | HEMATOCRIT [3]: 37.33% | HEMOGLOBIN [3]: 14.57 G/DL | LEUKOCYTE COUNT [3]: 15 x10E3/uL | LYMPHOCYTE [3]: 91.67% | MEAN CORPUSCULAR HEMOGLOBIN [3]: 24.27 pg | MEAN CORPUSCULAR HEMOGLOBIN CONCENTRATION [3]: 39.03 G/DL | MEAN CORPUSCULAR VOLUME [3]: 62.13 fL | MONOCYTE [3]: 1% | NEUTROPHIL [3]: 7.33% | NUCLEATED RED BLOOD CELLS [3]: 0 /100WBC | PLATELET COUNT [3]: 1244 x10E3/uL | ALANINE AMINOTRANSFERASE [3]: 64.33 u/L | ALBUMIN [3]: 4.27 G/DL | ALKALINE PHOSPHATASE [3]: 372.33 u/L | ASPARTATE AMINOTRANSFERASE [3]: 96.67 u/L | BLOOD UREA NITROGEN [3]: 17.33 mg/dL | CARBON DIOXIDE [3]: 26.67 mmol/L | CHLORIDE [3]: 99.33 MEQ/L | CHOLESTEROL [3]: 72.67 mg/dL | CREATINE PHOSPHOKINASE [3]: 527.67 u/L | CREATININE [3]: 0.25 mg/dL | GLUCOSE [3]: 150 mg/dL | LACTATE DEHYDROGENASE [3]: 877 u/L | LIPASE [3]: 9.67 u/L | PHOSPHORUS [3]: 11.3 mg/dL | POTASSIUM [3]: 6.57 MEQ/L | SODIUM [3]: 141.63 MEQ/L | TOTAL BILIRUBIN [3]: 0.23 mg/dL | TOTAL PROTEIN [3]: 6 G/DL | URIC ACID [3]: 1.73 mg/dL
